The results in this text go back to ChEMBL document CHEMBL1126452, “Synthesis of stereochemically defined phosphonamidate-containing peptides: Inhibitors for the HIV-1 proteinase” (Bioorg Med Chem Lett, 1992).

In this test the target is Human immunodeficiency virus type 1 protease (Human immunodeficiency virus 1, UniProt Q72874). The test can be described thus: Inhibitory concentration against HIV-1 Protease at pH 5.6 and at 37 degrees C.
In turn, `CCC(C)[C@H](NC(=O)[C@@H]1CCCN1P(=O)(OC)[C@@H](Cc1ccccc1)NC(=O)[C@H](CC(N)=O)NC(=O)OC(C)(C)C)C(=O)NCC(C)C` (single isomer, unassigned) had an IC50 of 576 µM.
`CCC(C)[C@H](NC(=O)[C@@H]1CCCN1P(=O)(OC)C(Cc1ccccc1)NC(=O)[C@H](CC(N)=O)NC(=O)OC(C)(C)C)C(=O)NCC(C)C` (single isomer, unassigned) gave an IC50 of 43.2 µM.
`CCC(C)[C@H](NC(=O)[C@@H]1CCCN1P(=O)(O)C(Cc1ccccc1)NC(=O)[C@H](CC(N)=O)NC(=O)OC(C)(C)C)C(=O)NCC(C)C` (stereo not given in full): the IC50 was 118 µM.
In turn, `CCC(C)[C@H](NC(=O)[C@@H]1CCCN1P(=O)(OC)[C@H](Cc1ccccc1)NC(=O)[C@H](CC(N)=O)NC(=O)OC(C)(C)C)C(=O)NCC(C)C` (single isomer, unassigned; 2d) showed a half-maximal inhibitory concentration (IC50) of 134 µM.
Molecule `CCC(C)[C@H](NC(=O)[C@@H]1CCCN1P(=O)(OC)[C@H](Cc1ccccc1)NC(=O)[C@H](CC(N)=O)NC(=O)OC(C)(C)C)C(=O)NCC(C)C` (single isomer, unassigned; 2a) had an IC50 of 141 µM.

As a reminder, the IC50 is the concentration needed to halve the response being measured. Low values mean greater potency, high ones weaker potency.
